Data: patent US8313740B2 (priority 2006, dated 2012)

Test system: MC38-HER-2 cells
Conditions: mouse, in vivo

## CC(=O)O[C@@]12CO[C@@H]1C[C@H](O)[C@@]1(C)C(=O)[C@H](O)C3=C(C)[C@@H](OC(=O)[C@H](O)[C@@H](NC(=O)OC(C)(C)C)c4ccccc4)C[C@@](O)([C@@H](OC(=O)c4ccccc4)[C@H]21)C3(C)C [Docetaxel, docetaxel]
  tumor growth, subset A: modest and transient delay of tumor growth
  tumor growth, subset B: had no effect on tumor growth
  tumor growth, subset C: had no effect on tumor growth
